The text below walks through data of patent US5888763A, “Peptides specific for the first Crk-SH3 domain” (The Rockefeller University, priority 1994, dated 1999).

One experiment has as its target T1, v-Crk (Avian sarcoma virus CT10, UniProt P05433).
T1 construct: made in house; host or cells: bacteria
Nature of the experiment: Tryptophan fluorescence titration of peptides with gst-v-Crk. To be noted: Table 3; fluorescence measurements. It is filed as binding. The text has this: (§1) Fluorescence Measurements. The fluorescence measurements were based predominantly on the interactions of the peptides with the aromatic residues, predominantly Trp (Yu et al., 1994, Cell 76:933) in the CrkSH3 domain.
(§2) Measurements were made with a Perkin-Elmer 760-40 fluorescence spectrophotometer at a excitation wavelength of 290 nm (slitwidth 2 nm) and an emission wavelength of 345 nm (slitwidth 17 nm). A mini-magnetic stirrer, CUV-O-STIR model 333 (HELLMA, Long Island, N.Y.) was used to mix the solution in a 1 cm square quartz fluorescence cell. A circulating water bath was used to maintain the sample temperature at 18° C. To obtain the titration curves for calculations of the binding constants, peptides from a stock solution of 5 mg/ml in TBS, 0.05% Tween-20 were added in small increments to a 1 ml volume of 0.5 μM SH3 domain in PBS, 1 mM Dithiothreitol (DTT).
(§3) Calculation of the binding constant. Since the concentration of the SH3-domain containing protein was low, the experimental data were fitted to the following equation:
(§4) F=Fmax *[peptide]/(Kd +[peptide]) (1)
(§5) Non-linear regression curve fitting using SigmaPlot (Jandel Scientific, San Rafael, Calif.) was carried out to fit the experimental data to equation (1) with Fmax and Kd as fitted parameters.

In another experiment the target is T2, c-CrkSH3(1) (Mus musculus, UniProt Q64010).
T2 construct: made in house; host or cells: bacteria
Nature of the experiment: Tryptophan fluorescence titration of peptides with gst-c-CrkSH3(1). Type of experiment: binding, murine. Conditions: fluorescence measurements.
Text: as §1, §2, §3, §4, §5

In another experiment the target is T3, Grb2 SH3 domain (Homo sapiens, UniProt P62993).
T3 construct: made in house; host or cells: bacteria
T3 sequence (P62993 whole entry, the tested form may be a part): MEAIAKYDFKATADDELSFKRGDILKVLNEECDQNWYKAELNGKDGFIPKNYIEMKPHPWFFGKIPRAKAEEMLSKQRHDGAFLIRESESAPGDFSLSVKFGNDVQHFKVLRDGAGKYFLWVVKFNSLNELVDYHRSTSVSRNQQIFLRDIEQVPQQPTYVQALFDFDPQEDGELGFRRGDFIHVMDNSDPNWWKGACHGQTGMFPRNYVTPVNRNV
Nature of the experiment: Tryptophan fluorescence titration of peptides with gst-Grb2. Type of experiment: binding.

Another experiment has as its target T4, CRKL (Homo sapiens, UniProt P46109).
T4 construct: made in house; host or cells: bacteria
Description: Tryptophan fluorescence titration of peptides with gst-CRKL. Type of experiment: binding. Conditions: Table 3; fluorescence measurements.
Text: as §1, §2, §3, §4, §5

The next experiment deals with gst-CrkSH3SH3. Nature of the experiment: ELISA: biotinylated gst-CB fusion proteins binding to immobilized gst-CrkSH3SH3. Conditions: wells coated with 100 ng/well gst-CrkSH3SH3, biotinylated gst-CB fusion protein, read-out: apparent Kd (half saturation point). As to the method:
ELISA. gst-CB-1 to -4 proteins were biotinylated with Sulfosuccinimidyl 6-(biotinamido) hexanoate (Pierce) according to the manufacturers instructions. ELISA plates (Nunc) were coated with 100 ng/well of gst-Grb2, gst-CrkSH3SH3 or gst in 0.1M NaHCO3, pH 9.6, over night at room temperature (Jones et al., 1991, Mol. Cell Biol. 11:2641). Wells were then blocked with 2% BSA. After washing three times with blocking buffer (20 mM Tris-HCl, pH 7.5, 100 mM NaCl, 0.05% Tween-20, 1 mM EDTA, 0.2% BSA and 0.1% Ovalbumin), biotinylated gst-CB fusion proteins were added at the concentrations indicated in FIG. 6. To measure bound gst-CB fusion proteins, wells were incubated with horseradish Peroxidase coupled streptavidin (Gibco). A chromogenic substrate, 2,2'-azinobis(3-ethylbenzothiazoline-6-sulfonic acid) diaminonium salt (ABTS, Pierce) was then added and the OD was measured at 405 nm after 5 and 15 min and the 5 min OD value subtracted from the 15 min OD value to yield DOD405. In each experiment, the DOD405 at saturation of SH3 domain binding sites was considered 100% . DOD405 values for all other points within the same experiment were expressed as a percentage of this 100% value. Binding to gst alone was subtracted at each data point.
(In general: ELISA stands for enzyme-linked immunosorbent assay.)

The target of a further experiment is gst-v-Crk (Avian sarcoma virus CT10 (Avian sarcoma …, UniProt P05433)). Description: tryptophan fluorescence titration.
In experiment [1] the target is T5, gst-c-CrkSH3(1) (Example 2) (murine, UniProt Q64010). Nature of the experiment: tryptophan fluorescence titration.
In experiment [2] the target is T5, gst-c-CrkSH3(1) (Example 2). Nature of the experiment: filter binding of 35S-gst-CrkSH3(1) to blotted gst-fusion peptides.
For experiment [3] the target is unchanged. Description: tryptophan fluorescence titration with gst-CrkSH3(1).
For experiment [4] the target is unchanged. Nature of the experiment: rounded value given in the summary of Example 3 for the peptide and Crk SH3-N; measured by fluorescence in Example 2.
The target is the same in experiment [5]. Nature of the experiment: tryptophan fluorescence titration. This is another data set of the same source.
Experiment [6] has the same target. Nature of the experiment: tryptophan fluorescence titration. The source holds these as a separate data set.
Setting [7] is: c-CrkSH3(1) Kd (μM), Table 2, gst-CrkSH3(1), 18° C.
Where [8] appears, read: Table 2, gst-Grb2, fluorescence measurements, 18° C, read-out: Grb2SHD Kd.

Like-named read-outs stand apart in the source and are kept apart here. Where a SMILES comes first, the peptide text is derived from it. Where no end group is shown, it is not given here.

T4 sequence (P46109 whole entry, species assumed): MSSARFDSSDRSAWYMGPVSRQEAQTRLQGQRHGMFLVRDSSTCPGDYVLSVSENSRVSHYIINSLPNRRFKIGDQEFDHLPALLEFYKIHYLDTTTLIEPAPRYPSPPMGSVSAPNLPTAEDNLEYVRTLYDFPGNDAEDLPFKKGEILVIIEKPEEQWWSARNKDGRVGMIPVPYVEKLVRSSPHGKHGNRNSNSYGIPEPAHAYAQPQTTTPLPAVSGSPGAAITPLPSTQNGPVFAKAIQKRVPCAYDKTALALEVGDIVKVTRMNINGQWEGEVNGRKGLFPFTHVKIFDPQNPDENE
Chain of gst-CrkSH3SH3 (Q64010 132-296 limits assumed): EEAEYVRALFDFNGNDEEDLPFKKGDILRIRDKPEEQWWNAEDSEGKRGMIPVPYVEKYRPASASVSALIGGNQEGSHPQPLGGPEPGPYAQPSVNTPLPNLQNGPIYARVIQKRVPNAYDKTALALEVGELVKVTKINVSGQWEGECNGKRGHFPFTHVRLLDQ
T1 sequence (P05433 whole entry): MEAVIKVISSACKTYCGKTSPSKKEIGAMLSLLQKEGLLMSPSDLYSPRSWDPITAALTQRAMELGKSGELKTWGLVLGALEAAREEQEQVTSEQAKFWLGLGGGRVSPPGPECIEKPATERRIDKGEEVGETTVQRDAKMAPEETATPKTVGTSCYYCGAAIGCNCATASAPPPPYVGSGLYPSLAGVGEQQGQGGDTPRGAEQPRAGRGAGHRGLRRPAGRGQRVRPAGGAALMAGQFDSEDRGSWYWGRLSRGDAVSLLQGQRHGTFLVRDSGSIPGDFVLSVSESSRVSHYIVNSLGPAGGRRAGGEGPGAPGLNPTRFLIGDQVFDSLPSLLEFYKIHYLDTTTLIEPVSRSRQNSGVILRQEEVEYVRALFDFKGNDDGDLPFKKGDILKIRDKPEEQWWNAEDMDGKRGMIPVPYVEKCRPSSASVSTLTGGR

For `CC(C)C[C@H](NC(=O)[C@H](C)NC(=O)[C@@H]1CCCN1C(=O)[C@@H]1CCCN1C(=O)[C@@H]1CCCN1)C(=O)N1CCC[C@H]1C(=O)N1CCC[C@H]1C(=O)N[C@@H](C)C(=O)N[C@@H](CCCCN)C(=O)N[C@@H](CCCNC(=N)N)C(=O)O` (H-PPPALPPAKR-OH), at v-Crk, the Kd is 248 ± 10 µM.
On to `CC(C)C[C@H](NC(=O)[C@@H]1CCCN1C(=O)[C@@H]1CCCN1C(=O)[C@H](CC(C)C)NC(=O)[C@H](C)NC(=O)[C@@H]1CCCN1C(=O)[C@@H]1CCCN1C(=O)[C@@H]1CCCN1)C(=O)N[C@@H](CCCCN)C(=O)N[C@@H](CCCNC(=N)N)C(=O)O` (H-PPPALPPLKR-OH), for which the Kd at v-Crk amounted to 437 ± 6 µM; on c-CrkSH3(1) (gst-c-CrkSH3(1) Kd (μM), Table 3), 379 ± 1 µM.
For `CC(C)C[C@H](NC(=O)[C@@H]1CCCN1C(=O)[C@@H]1CCCN1C(=O)[C@@H]1CCCN1C(=O)[C@@H]1CCCN1)C(=O)N1CCC[C@H]1C(=O)N1CCC[C@H]1C(=O)N[C@@H](CCCCN)C(=O)N[C@@H](CCCCN)C(=O)N[C@@H](CCCNC(=N)N)C(=O)O` [C3Gmut(1)] (H-PPPPLPPKKR-OH), the Kd on Grb2 SH3 domain was 203 ± 3 µM.
Take `CC(C)C[C@H](NC(=O)[C@H](C)NC(=O)[C@@H]1CCCN1C(=O)[C@@H]1CCCN1C(=O)[C@@H]1CCCN1)C(=O)N1CCC[C@H]1C(=O)N1CCC[C@H]1C(=O)N[C@@H](CCCNC(=N)N)C(=O)N[C@@H](CCCCN)C(=O)N[C@@H](CCCNC(=N)N)C(=O)O` [C3Gmut(2)] (H-PPPALPPRKR-OH): the Kd was determined as 23.5 ± 0.8 µM at Grb2 SH3 domain, 11.2 ± 0.5 µM at CRKL and 17.2 ± 0.4 µM on c-CrkSH3(1) (setting [7]).
For `CC(C)C[C@H](NC(=O)[C@H](C)NC(=O)[C@@H]1CCCN1C(=O)[C@@H]1CCCN1C(=O)[C@@H]1CCCN1)C(=O)N1CCC[C@H]1C(=O)N1CCC[C@H]1C(=O)N[C@@H](CCCCN)C(=O)N[C@@H](CCCCN)C(=O)N[C@@H](CCCNC(=N)N)C(=O)O` [CB-1 peptide], the figures for the Kd at Grb2 SH3 domain, at CRKL and on c-CrkSH3(1) (Kd for the CrkSH3(1) domain) were 142 ± 3 µM, 2.79 ± 0.1 µM and 1.89 ± 0.06 µM, respectively.
On to `CC(C)[C@H](NC(=O)[C@@H]1CCCN1C(=O)[C@@H]1CCCN1C(=O)[C@@H]1CCCN1)C(=O)N1CCC[C@H]1C(=O)N1CCC[C@H]1C(=O)N[C@@H](CCCNC(=N)N)C(=O)N[C@@H](CCCNC(=N)N)C(=O)N[C@@H](CCCNC(=N)N)C(=O)N[C@@H](CCCNC(=N)N)C(=O)O` [SOS-1, reference compound], for which the Kd was 3.54 ± 0.16 µM at Grb2 SH3 domain, 10.5 ± 0.8 µM on CRKL and 5.24 ± 0.16 µM on c-CrkSH3(1) (setting [7]).
As for `CC[C@H](C)[C@H](NC(=O)[C@H](C)NC(=O)[C@@H]1CCCN1C(=O)[C@@H]1CCCN1)C(=O)N1CCC[C@H]1C(=O)N1CCC[C@H]1C(=O)N[C@@H](CCCNC(=N)N)C(=O)N[C@@H](CCC(N)=O)C(=O)N1CCC[C@H]1C(=O)N[C@H](C(=O)O)[C@@H](C)O` [SOS-2] (H-PPAIPPRQPT-OH), the Kd on Grb2 SH3 domain (setting [8]) was 42 ± 4 µM.
In the case of `CC(C)C[C@H](NC(=O)[C@@H]1CCCN1C(=O)[C@@H]1CCCN1)C(=O)N[C@@H](CC(C)C)C(=O)N1CCC[C@H]1C(=O)N1CCC[C@H]1C(=O)N[C@@H](CCCNC(=N)N)C(=O)N[C@@H](CCC(=O)O)C(=O)N1CCC[C@H]1C(=O)N[C@H](C(=O)O)C(C)C` [SOS-3, reference compound] (H-PPLLPPREPV-OH), the Kd was 88 ± 3 µM on Grb2 SH3 domain and 206 ± 9 µM at c-CrkSH3(1) (setting [7]).
For `CC(C)[C@H](NC(=O)[C@@H]1CCCN1C(=O)[C@@H]1CCCN1C(=O)CN)C(=O)N1CCC[C@H]1C(=O)N1CCC[C@H]1C(=O)N[C@@H](CCCNC(=N)N)C(=O)N[C@@H](CCC(N)=O)C(=O)N[C@@H](CO)C(=O)N[C@H](C(=O)O)[C@@H](C)O` [SOS-4, reference compound] (H-GPPVPPRQST-OH), the Kd at Grb2 SH3 domain (setting [8]) turned out to be 94 ± 5 µM; on c-CrkSH3(1) (Table 2, gst-CrkSH3(1), 18° C, read-out: c-CrkSH3(1) Kd), 663 ± 3 µM.
“gst-CB-1: gst-fusion protein containing only the single proline-rich sequence CB-1 of C3G (SPPPALPPKKRQ; also: fused to GST)”: at gst-CrkSH3SH3, the Kd stood at 0.0104 µM.
Still for that read-out and setting: the result for “gst-CB-2: gst-fusion protein containing only the single proline-rich sequence CB-2 of C3G (DTPPALPEKKRR; also: fused to GST)” reads 0.027 µM; that for “gst-CB-3: gst-fusion protein containing only the single proline-rich sequence CB-3 of C3G (EKPPPLPEKKNK; also: fused to GST)”, 0.0113 µM; that for “gst-CB-4: gst-fusion protein containing only the single proline-rich sequence CB-4 of C3G (APPPALPPKQRQ; also: fused to GST)”, 0.00285 µM.
On to PPPALPPKKK [peptide PPPALPPKKK], for which the Kd with gst-v-Crk worked out at 36.2 µM; in experiment [1] it was 5 µM.
For the molecule PPPALPPKK (other) [gst-3-11 (CB-1 gst-fusion peptide without the C-terminal Arg-12)], the binding result in [2] was “no binding”.
In the case of PPPALPPKQR [CB-4 peptide], the binding result in experiment [3] was “binds”.
Turning to PPPALPPKKA [peptide PPPALPPKKA], the Kd with gst-v-Crk stood at 71.8 µM; in [1], 9.3 µM.
Take PPPVPPRRRR [SOS-1 peptide (PPPVPPRRRR)]: in the experiment with gst-v-Crk, the Kd amounted to 23.7 µM.
Turning to PPPALPPKKR [CB-1 peptide (PPPALPPKKR)], the Kd is around 2 µM in experiment [4] and 25.5 µM with gst-v-Crk.
With PPPALPPRKR [C3Gmut(2) peptide (PPPALPPRKR)], in experiment [5], the “fold decrease of binding against the wild type CB-1 peptide” value amounted to 10 fold and the “fold increase of Kd against the wild type CB-1 peptide” value is around 9 fold. The molecule also gave a Kd in the experiment with gst-v-Crk of 23.5 µM.
As to NSPPPALPPKKR (other, not fully specified) [gst-1-12 (GST-NSPPPALPPKKR)], the binding result in [2] is on record as “binds”.
Molecule PPPPLPPKKR [C3Gmut(1) peptide (PPPPLPPKKR)] showed a Kd in experiment [6] of 1.45 µM.
For PPAIPPRQPT [SOS-2 peptide (PPAIPPRQPT)], the Kd in experiment [6] came out at 127 µM.
For KPPPLPEKKQ [CB-3 peptide], in [3], the binding result is given as “binds”.
In experiment [1], PPPALPPKAR [peptide PPPALPPKAR] had a Kd of 5.74 µM.
In the case of TPPALPEKKR [CB-2 peptide], the binding result in [3] is “binds”.
Consider PPPALPPAKR [Lys-10Ala mutant peptide (PPPALPPAKR)], for which, in [5], the “fold decrease of binding against the wild type CB-1 peptide” value stood at 10 fold, the “fold increase of Kd against the wild type CB-1 peptide” value turned out to be 11.7 fold and the “fold reduction of binding affinity against the wild type CB-1 peptide” value came out at 11.6 fold. In experiment [1], this molecule came in with a Kd of 22.1 µM.
